In patent publication US9562268B2, “Risk assessment for adverse drug reactions” (Academia Sinica, priority 2003, dated 2017):
Like-named read-outs stand apart in the source and are kept apart here.

Key:
HLA-Cw*0806 = details: human, in vivo
Protocol: (§1) A total of 112 SJS/TEN patients were recruited either from Chang Gung Memorial Hospital or from several other medical centers throughout Taiwan. […] Drug taking history including dosage and duration, and the phenotypes of adverse drug reactions were recorded. The diagnostic criteria of clinical morphology were defined according to Roujeau (Roujeau J C, 1994). We define SJS as skin detachment of less than 10% of body-surface area, overlap SJS-TEN as skin detachment of 10-30%, and TEN as greater than 30%. SJS, overlap SJS-TEN and TEN are collectively referred to as SJS/TEN.
(§2) 73 tegretol-tolerant patients were included as controls. Volunteers from the general population of Taiwanese (n=94; age range: 20 to 80 years) were also recruited. The study was approved by the institutional review board, and informed consent was obtained.
(§3) Reagents for reverse lineblot sequence-specific oligonucleotide (SSO) were purchased from DYNAL Biotech Ltd. (Bromborough, UK) and used for HLA genotyping. Briefly, a PCR product was generated using biotinylated primer pairs for the second and the third exons of the HLA class I or class II loci, and then hybridized to a lineblot of SSO of probes immobilized on a nylon membrane. The presence of biotinylated PCR product bound to a specific probe is detected using streptavidin-horseradish peroxidase (HRP) and a chromogenic, soluble substrate to produce a blue “line” at the position of the positive probe. The probe reactivity pattern was interpreted by the genotyping software Dynal RELI™ SSO (DYNAL Biotech Ltd.; Bromborough, UK). Potential ambiguities were further resolved by sequence-based typing and DNA sequencing performed according to the IHWG Technical Manual (International Histocompatibility Working Group).

HLA-Cw*0302 = details: human, in vivo
Protocol: as §1, §2, §3

HLA-Cw*0801 = details: human, in vivo
Protocol: as §1, §2, §3

HLA-B*4601 = tested on: HLA-B*4601
Protocol: as §1, §2, §3
Allele frequencies in the different groups were compared by the Chi-square method with Yates correction by constructing 2×2 tables. P values were corrected for comparisons of multiple HLA alleles (Pc) by multiplying the raw P values by the observed number of HLA alleles present within the loci. Odds ratios were calculated with Haldane's modification, which adds 0.5 to all cells to accommodate possible zero counts.

HLA-DRB1*1202 = experiment: Equivalent genetic marker incidence in patients with ADRs: HLA-DRB1*1202; assay type: in vivo, human; details: SJS/TEN patients who received the drug
Protocol: as §1, §2
(§4) Reagents for reverse lineblot sequence-specific oligonucleotide (SSO) were purchased from DYNAL Biotech Ltd. (Bromborough, UK) and used for HLA genotyping. […] The presence of biotinylated PCR product bound to a specific probe is detected using streptavidin-horseradish peroxidase (HRP) and a chromogenic, soluble substrate to produce a blue “line” at the position of the positive probe. […]

HLA-A*1101 = experiment: Equivalent genetic marker incidence in patients with ADRs: HLA-A*1101; assay type: in vivo, human; details: SJS/TEN patients who received the drug
Protocol: as §1, §2, §4

[1] = patients with milder cutaneous reactions to the drug (n = 16)

Row | HLA-Cw*0806 frequency (HLA-Cw*0806) | Number of patients carrying HLA-Cw*0806 (HLA-Cw*0806) | HLA-Cw*0302 frequency (HLA-Cw*0302) | Number of patients carrying HLA-Cw*0302 (HLA-Cw*0302) | HLA-Cw*0801 frequency (HLA-Cw*0801) | Number of patients carrying HLA-Cw*0801 (HLA-Cw*0801) | HLA-B*4601 frequency (HLA-B*4601; [1]) | Number of patients carrying HLA-B*4601 (HLA-B*4601; [1]) | SMILES | HLA-B*4601 frequency (HLA-B*4601; drug-tolerant group (n = 73)) | Number of patients carrying HLA-B*4601 (HLA-B*4601; drug-tolerant group (n = 73)) | odds ratio, B*4601 associated drug-induced milder cutaneous ADRs (HLA-B*4601; versus drug-tolerant group) | HLA-DRB1*1202 frequency (HLA-DRB1*1202) | Number of patients carrying HLA-DRB1*1202 (HLA-DRB1*1202) | HLA-A*1101 frequency (HLA-A*1101) | Number of patients carrying HLA-A*1101 (HLA-A*1101)
1 | 0(0%) | 0(0%) | 82% | 14 | 11.7% | 2 | – | – | Oc1ncnc2[nH]ncc12 [allopurinol] | – | – | – | – | – | – | –
2 | – | – | – | – | – | – | 62.5% | 10 | NC(=O)N1c2ccccc2C=Cc2ccccc21 [carbamazepine] | 26% | 19 | 4.73 | 83.3% | 35 | 73.8% | 31
